Experimental data reported in patent US20250044279A1, “CYTOTOXICITY ASSAY FOR DETECTING CELLULAR DAMAGE” (priority 2023, published 2025).

How the values were obtained:
Nluc = target: T1, Nluc (Oplophorus gracilirostris, UniProt Q9GV45, A31E/A60N/A81I/F95D/I117V/K70R/L54V/L99Q/M102K/N193R/P142E/Q151K/Q38R/Q45L/V71I/Y165I); assay: Effect of pyruvate on Nluc enzyme activity in TR146-Nluc cell lysate; assay type: biochemical; conditions: 16-0.5 mM dilution series (FIG. 4C)
T1 construct: expressed in transfected cells; host or cells: TR146 human oral epithelial cells, lentivirally transduced with pSEW-NanoLuc-IRES-PuroR (Nluc gene amplified from Addgene plasmid #67178), lysed in 1% Triton X-100 in PBS
Description: (§1) In order to measure damage from cells seeded in 96-well plates, plates were centrifuged at 250×g for 10 minutes. Where indicated, 100 μl of supernatant was collected and stored at −20° C. for assaying on another day in the same week. For the luciferase assays, 5 μl supernatant was diluted with 95 μl PBS in white flat-opaque-bottomed 96-well plates (ThermoFisher). Then, 100 μl of 10 μM coelenterazine (in PBS) was added and luciferase activity measured immediately using a Tecan infinite M200 luminescence reader, with integration time of 100 ms and OD2 compensation. The OD2 neutral density filter attenuates high level light by a factor of 100.
TR14-Nluc cells were detached with Accutase and resuspended in 5 ml PBS. Cells were counted and ≈1×10^4 cells/ml were resuspended in lysing buffer (1% Triton X-100 in PBS, pH 7.4).
To examine the effects of pyruvate on activity of LDH, a 2-fold dilution series for sodium pyruvate and lactate (16-0.5 mM) was prepared in lysis buffer, the lysate was incubated for 10 min at 37° C. and centrifuged at 10,000×g. The supernatant was collected to test LDH and luciferase enzyme activity.

C. albicans (SC5314) = assay: Infection of TR146-Nluc epithelial cells with C. albicans in the presence of antifungals; damage read out by Nluc and LDH in supernatant; assay type: cell-based; conditions: sub-MIC levels, supernatant 24 hours after infection; for protection of TR146-Nluc from C. albicans-induced cell damage, LDH assay: LDH readout, protective effect not reliably detected (FIG. 3D); for protection of TR146-Nluc from C. albicans-induced cell damage, Nluc assay: Nluc readout (FIG. 3D)
Description: as §1
The LDH cytotoxicity assay was performed according to instructions in the Roche Cytotoxicity Detection Kit with minor modifications. Briefly, 10 μl supernatant was diluted with 90 μl PBS in transparent-flat-bottomed 96-well plates, 100 μl of kit reagent mixture was added to each well, the plates were incubated in the dark for 15-20 minutes at room temperatures, and absorbance was measured with a Tecan absorbance reader at 492 nm (reference at 600 nm).
Infection of epithelial cells with Candida spp. strains Overnight cultures of Candida spp. strains in YPD, 1% peptone were diluted, washed in PBS, and counted using Neubauer counting chambers. The medium of confluent epithelial cells was replaced with a suspension of […] Candida spp. (MOI 1) in the appropriate cell culture medium (without FBS). The cells were incubated at 37° C. and 5% CO2 for 24 hours.
Stock solutions of the antifungal drugs, fluconazole (10 mg/ml) and voriconazole (10 mg/ml) were prepared in DMSO and stored at −20° C. A two-fold dilution series was prepared in DMEM/F12 cell culture medium for fluconazole (8-0.25 μg/ml) and voriconazole ([…]). Diluted drugs were transferred to TR146-Nluc cells seeded 48 hours prior, and infected with C. albicans (SC5314), as described above. Supernatant was collected 24 hours after infection to measure damage by LDH and Nluc.

T1 sequence (Q9GV45 other isoform, or with tags, fused parts or gaps with the stated changes): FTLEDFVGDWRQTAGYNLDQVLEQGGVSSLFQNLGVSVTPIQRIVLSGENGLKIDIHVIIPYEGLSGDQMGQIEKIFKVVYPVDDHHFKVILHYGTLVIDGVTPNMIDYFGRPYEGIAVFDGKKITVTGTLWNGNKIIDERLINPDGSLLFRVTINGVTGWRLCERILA

| Structure (SMILES) | effect on Nluc enzyme activity (Nluc) | protection of TR146-Nluc from C. albicans-induced cell damage, LDH assay (C. albicans (SC5314)) | protection of TR146-Nluc from C. albicans-induced cell damage, Nluc assay (C. albicans (SC5314)) |
| --- | --- | --- | --- |
| CC(=O)C(=O)[O-].[Na+] [pyruvate, sodium pyruvate] | no discernible effect | – | – |
| C[C@@H](c1ncncc1F)[C@](O)(Cn1cncn1)c1ccc(F)cc1F [voriconazole] | – | not with LDH | protective effect |
| OC(Cn1cncn1)(Cn1cncn1)c1ccc(F)cc1F [fluconazole] | – | not with LDH | protective effect |
